This note sets out measurements from article doi:10.1101/2025.06.15.659787v1 (biorxiv, 2025).

This assay has as its target Mtb-SufS (Mycobacterium tuberculosis, UniProt P9WQ69).

Sequence of Mtb-SufS (P9WQ69 whole entry): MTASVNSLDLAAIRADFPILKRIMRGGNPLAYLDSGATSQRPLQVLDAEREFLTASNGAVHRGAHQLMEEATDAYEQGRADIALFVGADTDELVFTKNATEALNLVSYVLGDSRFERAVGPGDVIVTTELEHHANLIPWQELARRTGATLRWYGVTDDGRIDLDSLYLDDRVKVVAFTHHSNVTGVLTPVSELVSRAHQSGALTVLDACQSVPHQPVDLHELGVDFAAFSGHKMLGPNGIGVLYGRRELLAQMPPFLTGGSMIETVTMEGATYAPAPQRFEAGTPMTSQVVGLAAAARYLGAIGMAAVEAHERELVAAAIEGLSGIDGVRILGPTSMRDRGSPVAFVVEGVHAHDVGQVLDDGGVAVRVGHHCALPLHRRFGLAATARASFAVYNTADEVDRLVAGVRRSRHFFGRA

`N[C@@H](CS)C(=O)O` [L-Cys]: the “GC-MS assay of L-Ala formation” value was “Mtb-SufS shows low basal activity”.
